Experimental data reported in US10428347B2, “Herbicide-detoxifying enzymes and uses thereof” (priority 2017, dated 2019).
“And” between values parts separate entries of the source, which are not always exact repeats. Identical values can stand only once. Like-named read-outs stand apart in the source and are kept apart here.

Experiments:
[1] = oxidation of NADH
Text: Spectra were read from 200-700 nm with a BioTek SYNERGY HTX plate reader (BioTek Instrument Inc.).
NADH disappears when the molecule is oxidized to NAD^+.

soybean plants [2] = test: V1 soybean bioassay of dicamba reacted with ChD with or without MnSO4
Protocol: Soybean plants (variety Morsoy Xtra) were planted in Timberline soil (2 seeds per pot) and grown for 12 days under controlled environmental growth conditions: 300 μmol m^−2 s^−1 (light photons) for a 13/11 light/day cycle and a 21° C. day/15° C. night temperature range until the V1 stage of development.
The dilution to achieve 100 ppm or 100 mg/L was made in 25 mM HEPES pH 7 in a 10 mL total volume. […] The ChD enzyme production was centrifuged to remove any cellular debris and then divided into aliquots of 100 μL containing the Bacillus subtillis (A64) filtrate with the ChD expressed enzyme. […] The reactions were incubated at 37° C. with 400 ppm stirring for two hours. Aliquots of the reactions were collected and stored at −80° C.

[3] = HPLC; for Dicamba (ppm): samples diluted to expected 35 ppm
Protocol: A Bacillus subtilis (A64) control reaction, which was supernatant with no SM1 enzyme was performed in parallel. The reactions were incubated at 37° C. with 400 rpm stirring for two hours. Aliquots of the reactions were collected at time 0 (T0), 1 hour, and 2 hours, and frozen at −80° C.
HPLC column (Kinetex® 5 μm C18 100 Å, LC Column 50×4.6 mm) was equilibrated for 15 minutes with 35% acetonitrile and 65% 10 mM ammonium acetate with 0.1% formic acid in water. A volume of 10 μL of each sample was injected into Waters 2695 Separations Module with a 2996 Photodiode Array Detector. Samples were run isocratically (35% acetonitrile and 65% 10 mM ammonium acetate with 0.1% formic acid in water) for 2 minutes. […] An average of 3 measurements was run for each treatment sample.
The HPLC results as reported in FIG. 2 are the average of 3 sample measurements.

soybean = test: Spray tank dicamba treated with ChD crude cell lysate, applied to field soybean; type: in vivo; settings: field soybean V2-V3, 2 ml of tank sample (about 200 mg/L dicamba, with or without 5% v/v crude cell lysate for 10 minutes), one week after application (FIG. 15)
Protocol: Chlorothalonil dehalogenase (ChD, SEQ ID NO: 168) was prepared as a crude cell lysate as described above in Example 5. […] A 5% v/v solution of the crude cell lysate containing the ChD enzyme was added and the tank was run for an additional 10 minutes. […] Each of the samples was frozen immediately after collection from the tank. Samples were transported to the field on ice to ensure that enzyme activity was halted.

soybean seedlings = test: Spray of enzyme-treated dicamba solution onto soybean seedlings; type: in vivo; settings: one week
Protocol: Salicylate monooxygenase (SM, SEQ ID NO: 21) and hydroxyphenylacetate monooxygenase (HPAM, SEQ ID NO: 30) were immobilized on particles. […] Aliquots (1 ml) were taken from incubated samples at 0 minutes, 10 minutes, 30 minutes, 1 hour, 5 hours, 24 hours and 30 hours after the introduction of SM and immediately frozen to stop the detoxification reaction. NADPH consumption was quantified by measuring loss of absorbance at 340 nm using a spectrophotometer. Results for SM are shown in panel A of FIG. 10 and results for HPAM are shown in panel A of FIG. 11. Consumption of NADPH is proportional to the degradation of dicamba.
Immediately after taking the absorbance measurements, the 1 ml aliquots were mixed with a nonionic organosilicone surfactant copolymer (0.1% SILWET L77) and 200 μL of the mixture was sprayed onto 2.5-week-old soybean seedlings (six plants per treatment group, on average). The use of the surfactant ensured even distribution of the solutions on the plants. Control plants were sprayed with water+surfactant alone or dicamba+surfactant alone. After one week, the degree of herbicide damage or the degree of protection from dicamba-induced injury (in plants treated with SM) was assessed visually.

[4] = Spray tank cleaning procedure using salicylate monooxygenase to remove dicamba; settings: spray application using dicamba
sensitive plants = settings: in vivo; cited from earlier work
soybean plants [5] = test: Trifoliate damage scoring of soybean treated with SM1-dicamba reaction products; type: in vivo; set-up: key: 0: No visible damage; 1: youngest trifoliate has moderate yellowing or curling; 2: youngest trifoliate has moderate yellowing or curling; 3: youngest trifoliate has severe yellowing or curling; 4: youngest trifoliate is completely dead or shriveled; 5: plant is completely necrotic (dead); settings: V1 soybean (Morsoy Xtra), 100 μL reaction product diluted 1:24 with 0.01% SILWET L-77 on trifoliate leaves, 6 plants; Time (hours) 2; scale 0-5
Text: These SM1-dicamba degradation products were applied to soybean seedlings (variety, Morsoy Xtra). […] The plants were scored based on trifoliate damage using the scale as described in Table 27.

[6] = Absorbance spectra assay of dicamba degradation by ChD or CAC; settings: dicamba (CLASH) 200 mg/L alone (no enzyme), 50 mM HEPES pH 7.0, one hour at 37° C.
[7] = NADPH consumption by immobilized monooxygenases with 2,4-D; type: biochemical; settings: immobilized enzyme, 2,4-D 150 μM, 30° C., 60 minutes, vs no enzyme negative control (FIG. 3)
Protocol: Monooxygenases can be used to detoxify herbicides in a solution. Monooxygenases use NADPH as a co-factor when degrading substrates. Consumption of NADPH is proportional to the degradation of the substrate.
The ability of each of these enzymes to detoxify 2,4-D was evaluated in a similar manner. […] Aliquots were taken from the samples at 30 minute and one hour timepoints, and NADPH consumption was assessed by measuring absorbance at 340 nm.
(§1) An additional experiment was performed to assess the substrate specificity of the salicylate monooxygenase (SM, SEQ ID NO: 21). […] The assay buffer also contained 0.5 mM FeSO4, 0.5 mM NADPH, 10 mM MgCl2, and 25 mM HEPES (pH 7). After 60 minutes, absorbance at 340 nm was measured to detect NADPH consumption. Data are represented as averages+/−SD from three independent reads of each reaction.

[8] = NADPH consumption by immobilized salicylate monooxygenase with salicylic acid; type: biochemical; settings: immobilized enzyme, salicylic acid 150 μM, 30° C., 60 minutes (FIG. 3)
Protocol: as §1

[9] = NADPH consumption by immobilized monooxygenases with dicamba; type: biochemical; settings: immobilized enzyme, dicamba 150 μM, 30° C., 60 minutes, vs no enzyme negative control (FIG. 3)
lentil plants = test: Lentil seeds coated with immobilized enzyme, grown in dicamba-containing soil; type: in vivo
Protocol: For each treatment group, eighteen lentil seeds were coated with immobilized salicylate monooxygenase (SM, SEQ ID NO: 21) or hydroxyphenylacetate monooxygenase (HPAM, SEQ ID NO: 30), or with a water-only control (H2O) or a control containing only the particles used for immobilization, without any enzyme (“Particle Alone”). […] 50 ml of water was selected as this is the saturation point of this soil at this scale. Herbicides were allowed to sit in the soil for 24 hours before planting of coated seeds. Germination rate was measured at one week and root and shoot lengths were measured after two weeks.
Further data illustrating the protective effects of salicylate monooxygenase (SM) and hydroxyphenylacetate monooxygenase (HPAM) on lentil plants grown in dicamba-containing soil are provided in FIGS. 6-9. Lentil seeds were treated as described above with water alone, particle alone, or enzyme immobilized on a particle. […] Growth (shoot and root length) was measured at two weeks.

[10] = 2,4-D degradation by TfdA (2,4-dichlorophenol colorimetric assay and HPLC); type: biochemical
Protocol: They were cloned, expressed, and produced in production batches as previously described for SM1 and other pesticide detoxifying enzymes. […] Reactions were then added to a 15 mL conical tube and placed in a shaker at 30° C. Aliquots consisting of 1 mL were taken from each reaction at the desired time points and flash frozen in a −80° C. freezer for later testing.
The 2,4-D degradation reaction samples were defrosted and vortexed. Samples consisting of 200 μL of each reaction were removed and placed in a 96 well plate. To each well on the assay plate containing a reaction sample, […] pH 10 (0.309 g boric acid, 0.373 g potassium chloride, 4.4 mL 1 M NaOH per 100 mL solution), 2 μL 2% 4-aminoantipyrine, and 2 μL 8% potassium ferricyanide were added. The wells were mixed by back pipetting. The plate was then covered with a film and placed in a 30° C. incubator for 1 hour.

[11] = dicamba 100 ppm, n=6, scale 0-5

## COc1c(Cl)ccc(Cl)c1C(=O)O [Dicamba, 3,6-dichloro-2-methoxybenzoic acid]
[1]; Time 1 hour
  Absorbance at 340 nM: 0.059
[1]; Time 2 hours
  Absorbance at 340 nM: 0.058
[1]; Time T0
  Absorbance at 340 nM: 0.056
Soybean plants [2]; [11]
  Average Epinasty Score: 3.0
  average trifoliate damage score: 3.5
Soybean plants [2]; dicamba alone at 100 ppm, 150 ppm and 200 ppm
  average trifoliate damage score: 3.5-3.6
[3]; Time 0 hours
  Percent Dicamba Concentration Relative to T0 control: 100.0%
[3]; Time 0 hours, 25 mM HEPES pH 7, 37° C.
  Dicamba (ppm): 34.9 ppm
[3]; Time 1 hour
  Percent Dicamba Concentration Relative to T0 control: 113.6%
[3]; Time 1 hour, 25 mM HEPES pH 7, 0.5 mM NADH where stated, 37° C.
  Dicamba (ppm): 39.7 ppm
[3]; Time 2 hours
  Percent Dicamba Concentration Relative to T0 control: 106.0%
[3]; Time 2 hours, 25 mM HEPES pH 7, 0.5 mM NADH where stated, 37° C.
  Dicamba (ppm): 37.0 ppm
soybean
  damage to or protection of soybean crop (size and growth vs untreated control): significant damage to the crops
Soybean seedlings; 2.5-week-old soybean seedlings sprayed with 208 μM dicamba solution with or without immobilized enzyme
  herbicide damage or protection from dicamba-induced injury, assessed visually: significant curling of the leaves and stunted growth
[4]
  safe zone concentration in rinsate (no injury or harm to the plant or the environment): ≤ 15 mg/L
Sensitive plants
  dicamba spray level at which sensitive plants show herbicide damage with pronounced symptoms: 0.017 kg/ha
Soybean plants [5]
  average trifoliate damage score: 4
[6]
  Absorbance Maxima at Wavelength (λ) 230: 1.597 and 1.5967
  Absorbance Maxima at Wavelength (λ) 259: 0.1597
  Absorbance Maxima at Wavelength (λ) 280: 0.2845

B1: SM: salicylate monooxygenase from Bacillus cereus BGSC 6E1, amino acid SEQ ID NO: 21 (nucleotide SEQ ID NO: 1) (protein, listed as Bacillus cereus)
chain: MNNVIIIGGGIAGLCAAISLQKIGLDVKVYDKNTEPTVAGAGIIIAPNAMQALELYGISKKIKKFGNESDGFNLVSEKGTTFNKLIIPTCYPKMYSIHRKDLHQLLLSELKEDTVKWGKECVKIEQNEANALKIVFQDGSEALGNILIAADGIHSVIRKQVTQGDNYRYAGYTCWRGVTPANNLSLTNDFIETWGTNGRFGIVPLPNNEVYWYALINAKARDPKYKAYTTTDLYNHFKTYHNPIPSILKNASDIDMIHRDIIDITPMKQFFDKRIVFIGDAAHALTPNLGQGACQAIEDAIILAECIKNNAHYRQAFLEYEQKRRDRIEKISNTAWKVGKMAQIESKPLTLVRNEVMKRMPKWVSEKRTHELYSFHL
[7]
  NADPH consumption: statistically significant levels
[8]
  NADPH consumption: higher activity
[9]
  NADPH consumption: statistically significant levels
Soybean seedlings; 208 μM dicamba, immobilized enzyme, 30° C., soybean seedlings
  incubation time of enzyme with dicamba giving plants equivalent to the water control: ≤ 10 min
Lentil plants; lentil seeds coated with immobilized enzyme, soil with dicamba 0.1× or […] label rate, one week, vs water and particle-alone controls
  germination rate: positive effect
Lentil plants; two-week-old lentil, soil with dicamba 0.1× label rate (0.588 mg/L), vs water only or particle only controls (FIG. 6, FIG. 8)
  shoot length: increased shoot lengths

B2: TfdA: 2,4-D alpha-ketoglutarate dioxygenase with A198V mutation, SEQ ID NO: 277 (protein, UniProt P10088 1-287, looked up)
Alpha-ketoglutarate-dependent …: MSVVANPLHPLFAAGVEDIDLREALGSTEVREIERLMDEKSVLVFRGQPLSQDQQIAFARNFGPLEGGFIKVNQRPSRFKYAELADISNVSLDGKVAQRDAREVVGNFANQLWHSDSSFQQPAARYSMLSAVVVPPSGGDTEFCDMRAAYDALPRDLQSELEGLRAEHYALNSRFLLGDTDYSEAQRNAMPPVNWPLVRTHAGSGRKFLFIGAHASHVEGLPVAEGRMLLAELLEHATQREFVYRHRWNVGDLVMWDNRCVLHRGRRYDISARRELRRATTLDDAVV
[10]; 2,4-D with TfdA enzyme, after 1 hour of incubation, 30° C. (FIG. 19)
  2,4-dichlorophenol generated: over 2 mg/L
[10]; 2,4-D with TfdA, at 4 hours (FIG. 20)
  reduction of 2,4-D concentration quantified by HPLC: ~10%
